Test system: ICR mice
Assay: Carrageenan-induced paw swelling in mice
Type: in vivo
Conditions: 1 mg/kg i.g.; for 0.5 h inhibition rate (%) / 0.5 h swelling degree (μL): 0.5 h after carrageenan injection; for 0.5 h swelling degree (μL) / 1 h swelling degree (μL) / 2 h swelling degree (μL): mean±SD; for 1 h inhibition rate (%) / 1 h swelling degree (μL): 1 h after carrageenan injection; for 2 h inhibition rate (%) / 2 h swelling degree (μL): 2 h after carrageenan injection
Protocol: ICR mice, body weight 18 g-22 g, half of them being male and the other half being female, provided by the Department of Laboratory Animals, Peking University. The animals were raised in a standard environment: temperature 23±1° C., relative humidity 55±5%, light-dark cycle 12 h/12 h, and fed with standard pellet feed.
The mouse was fixed in a special holder, and both hind feet were exposed. Before the test, a line was drawn at 0.5 cm below the ankle joint of mouse with a marker, and used as a mark for measuring plantar volume. 30 minutes before administration the volume of right hind foot was measured as basic threshold. The mice were randomly divided into 5 groups, 8 mice per group, half of them being male and the other half being female. Vehicle control group (double-distilled water, i.g.), dexamethasone control group (0.5 mg/kg, i.g.), compound DXL-A-22 group (1 mg/kg, i.g.), and DXL-A-24 group (1 mg/kg, i.g.) were set. All drugs were dissolved in double-distilled water before administration, and were administered at 0.1 mL/10 g. Immediately after intragastric administration, 20 μL of 5% carrageenan saline solution was injected subcutaneously in the right hind foot of the mice, and the plantar volumes were measured at time points of 0.5 h, 1 h and 2 h after injection. The difference between the plantar volume of right foot after injection of carrageenan and the plantar volume of right foot before injection was used as swelling degree index (i.e., swelling degree). The swelling degree was calculated according to formula (3). The intensity of anti-inflammatory effect was expressed as inhibition rate (%), and the inhibition rate (%) was calculated according to formula (4).
Swelling degree=plantar volume of right foot after injection−plantar volume of right foot before injection (3)
Inflammation inhibition rate (%)=(plantar swelling degree in vehicle control group−plantar swelling degree in drug administration group)/plantar swelling degree in vehicle control group×100% (4)

With `Br.Brc1ccc(N2CC[N+]3(CCCC3)CC2)cc1` [DXL-A-22, 8-(4-bromophenyl)-5,8-diazaspiro[4.5]decan-5-ium bromide] the “0.5 h inhibition rate (%)” value was 50.07%, the “0.5 h swelling degree (μL)” value was 42.63 ± 16.98**/ μL and the “1 h inhibition rate (%)” value was 55.56%. The “1 h swelling degree (μL)” value was 38.50 ± 11.40**/ μL, the “2 h inhibition rate (%)” value was 65.36% and the “2 h swelling degree (μL)” value was 38.63 ± 11.67**/ μL.

In the case of `FC(F)(F)c1ccc(N2CC[N+]3(CCCC3)CC2)cc1.[Br-]` [DXL-A-24, 8-(4-(trifluoromethyl)phenyl)-5,8-diazaspiro[4.5]decan-5-ium bromide], the “0.5 h inhibition rate (%)” value is reported as 52.27%, the “0.5 h swelling degree (μL)” value is reported as 40.75 ± 13.34**/ μL and the “1 h inhibition rate (%)” value is reported as 57.72%. The “1 h swelling degree (μL)” value was 36.63 ± 16.12**/ μL, the “2 h inhibition rate (%)” value was 67.49% and the “2 h swelling degree (μL)” value was 36.25 ± 9.60**/ μL.

— patent US20200369674A1, “ANTI-PAIN COMPOUND AND PREPARATION METHOD THEREOF” (LUNAN PHARMACEUTICAL GROUP CORPORATION, priority 2017, published 2020)
